Literature values, collected in patent US20230149445A1, “OXIDATIVE STRESS INHIBITOR AND ANTIOXIDANT AGENT” (BOSQUET Silicon Corp., priority 2020, published 2023).

Conditions: water at 25° C.

SMILES: [HH] [hydrogen (H2), hydrogen]
- saturated solubility in water: 1.6 ppm
